Results on 1 compound are retold here after patent publication US11617751B2, “Pharmaceutical composition containing a tetrahydrofolic acid” (Bayer Pharma AG, priority 2006, dated 2023).

For this series the following is noted: in presence of polyvinylpyrrolidone (PVP); data not shown.

Molecules are shown by their SMILES.

With `CN1c2c(nc(N)[nH]c2=O)NC[C@@H]1CNc1ccc(C(=O)N[C@@H](CCC(=O)O)C(=O)O)cc1` [5-methyl-(6S)-tetrahydrofolic acid], the “effect of PVP on break-down of 5-methyl-(6S)-tetrahydrofolic acid” value was “accelerated the break-down”.
